According to a melting point compilation (Tetko et al.; mined from patent text by program, amines drawn as free bases though some values may be those of a salt):

**Q.** For Cc1cccc(CC(=O)N[C@H]2C[C@H](C(=O)O)Nc3cc(Cl)cc(Cl)c32)c1 (relative stereo), which melting point is on record?
**A.** Its melting point is 169 to 171 °C.

**Q.** Which melting point does the source give for N#Cc1ccc(C(Cl)(Cl)Cl)cc1C(Cl)(Cl)Cl here?
**A.** The melting point was 76 to 78 °C.

**Q.** With CC(C)Cc1n[nH]c2c1c(=O)n(-c1ccccc1)c1ncccc21 as the molecule, how does the melting point read?
**A.** The melting point was 217 to 220 °C.

**Q.** For C=C(C(=O)c1ccc(C(=O)O)cc1)c1cc(OC)c(OC)c(-c2cccs2)c1, which melting point is on record?
**A.** Its melting point is 156 to 157 °C.

**Q.** With COc1cc2nc(SCc3nccc(N(C)C)c3F)[nH]c2cc1OC as the molecule, how does the melting point read?
**A.** Its melting point is 142 to 144 °C.

**Q.** With Nc1ccc(Cl)c2c(Cl)ccnc12 as the molecule, how does the melting point read?
**A.** Its melting point is 135 °C.

**Q.** With Cc1c(C)c2cc(CCN3CCN(c4n[nH]c5ccccc45)CC3)ccc2[nH]c1=O as the molecule, how does the melting point read?
**A.** The melting point was 266 to 268 °C.

**Q.** For O=S(=O)(CC(F)(F)F)NC(c1ccc(Cl)c2nc3n(c12)CCCN3c1c(Cl)cc(Cl)cc1Cl)C(F)(F)F (stereo not drawn), which melting point is on record?
**A.** The melting point was 237 to 239 °C.

**Q.** With CCOC(=O)C1=C(C)N(c2ccc(Cl)cc2)C(=O)CC1 as the molecule, how does the melting point read?
**A.** The melting point was 124 to 126 °C.

**Q.** With CN(C)CCn1c2ccccc2c(=NN=C2NCCS2)c2ccccc21 as the molecule, how does the melting point read?
**A.** Its melting point is 192 to 194 °C.

**Q.** For Fc1ccc2nc(S)sc2c1, which melting point is on record?
**A.** Its melting point is 224 to 226 °C.

**Q.** With CC(=O)C1C(=O)N(C(=O)Nc2ccccc2)c2ccccc21 (stereo not drawn) as the molecule, how does the melting point read?
**A.** Its melting point is 171 to 173 °C.

**Q.** With CCOC(=O)CCn1nc(-c2cc(C(C)(C)C)c(O)c(C(C)(C)C)c2)c2cccnc21 as the molecule, how does the melting point read?
**A.** The melting point was 105 to 106 °C.

**Q.** Which melting point does the source give for COc1nc2cccnc2n1-c1ccc(-c2nc(-c3nccs3)cn2-c2ccc(C)nc2)cc1 here?
**A.** Its melting point is 190 to 192 °C.

**Q.** For CCCn1nc2c(N)nc3ccccc3c2c1CC1(O)CCOCC1, which melting point is on record?
**A.** The melting point was 209 to 211 °C.

**Q.** Which melting point does the source give for Cn1cc(-c2cc3cccnc3[nH]2)c2cc(-c3nn[nH]n3)ccc21 here?
**A.** Its melting point is 303 °C.

**Q.** With O=S1(=O)CCC(c2ccc(N3CCN(CC(O)(Cn4cncn4)c4ccc(F)cc4F)CC3)cc2)CN1 (stereo not drawn) as the molecule, how does the melting point read?
**A.** Its melting point is 165 to 167 °C.

**Q.** For COCCCCc1cccc(C2(c3ccc(OC(F)F)cc3)N=C(N)N(C)C2=O)c1 (stereo not drawn), which melting point is on record?
**A.** The melting point was 36 to 39 °C.

**Q.** Which melting point does the source give for O=S(=O)(Cl)c1sc(Cl)c(Cl)c1Cl here?
**A.** Its melting point is 56 °C.

**Q.** Which melting point does the source give for Cc1ccc(-c2c(Cl)nc3ncnn3c2NC2CCCC2)cc1 here?
**A.** The melting point was 158 °C.

**Q.** Which melting point does the source give for N[C@@H](CSc1ccccc1[N+](=O)[O-])C(=O)O here?
**A.** The melting point was 168 to 171 °C.

**Q.** Which melting point does the source give for Cc1cc([C@@H](O)[C@@H](C)N2CCC(O)(c3ccc(C(F)(F)F)cc3)CC2)cc(C)c1O[Si](C(C)C)(C(C)C)C(C)C (relative stereo) here?
**A.** The melting point was 177 to 178 °C.

**Q.** For CCOc1nc(NCc2ccco2)nc(Nc2ccc3[nH]c(-c4cccs4)nc3c2)n1, which melting point is on record?
**A.** The melting point was 170 to 172 °C.

**Q.** With Nc1nc(Nc2cccc(Br)c2)c2c(n1)[nH]c1ccccc12 as the molecule, how does the melting point read?
**A.** Its melting point is 234 °C.

**Q.** For CC(C)(C)c1cc(SCCC(=O)N2CCN(Cc3ccccc3)CC2)cc(C(C)(C)C)c1O, which melting point is on record?
**A.** The melting point was 92.5 to 95 °C.

**Q.** With CCN(CC)CCNC(=O)c1ccc(-c2n[nH]c3c2Cc2ccccc2-3)cc1 as the molecule, how does the melting point read?
**A.** The melting point was 172 to 174 °C.

**Q.** With CC1(C)CC(C)(C)CC(O)(C#Cc2ccccn2)C1 as the molecule, how does the melting point read?
**A.** The melting point was 126 to 127 °C.

**Q.** With CC(C)(C)CCN(CCC(C)(C)C)[C@@H](CC(=O)O)C(=O)O as the molecule, how does the melting point read?
**A.** Its melting point is 197 to 198 °C.

**Q.** With CC1(C)CC(=O)SC(=NCCCCN2CCN(c3ncccn3)CC2)N1 as the molecule, how does the melting point read?
**A.** Its melting point is 148 °C.

**Q.** Which melting point does the source give for CCOC(=O)c1c(CN(CC)CC)nc2n(Cc3ccccc3)c3ccccc3n12 here?
**A.** The melting point was 44 to 45 °C.

**Q.** Which melting point does the source give for O=C(OCN1C(=O)c2ccccc2S1(=O)=O)c1c(Cl)cncc1Cl here?
**A.** The melting point was 159 to 160 °C.

**Q.** For CC(C)c1cc(-c2ccc(F)cc2)n(-c2ccccn2)n1, which melting point is on record?
**A.** Its melting point is 80 to 81 °C.

**Q.** For COC(=O)CCn1c(C(=O)NCC(=O)N(CC2CCCCC2)c2c(OC)cc(C)cc2OC)cc2ccccc21, which melting point is on record?
**A.** The melting point was 68 °C.

**Q.** Which melting point does the source give for N#Cc1ncccc1CCc1cccc(Cl)c1 here?
**A.** The melting point was 72 to 73 °C.

**Q.** With CC(C)(O)Cn1cnc2c(N)nc3cc(OCc4ccccc4)ccc3c21 as the molecule, how does the melting point read?
**A.** Its melting point is 254 to 257 °C.

**Q.** With Cc1c(N)ccn2nc(-c3ccccc3)nc12 as the molecule, how does the melting point read?
**A.** The melting point was 213 to 215 °C.

**Q.** With COCCOc1ccc(I)cc1 as the molecule, how does the melting point read?
**A.** The melting point was 36 to 37 °C.

**Q.** Which melting point does the source give for OCc1ccc2cc(Cl)ccc2c1 here?
**A.** Its melting point is 134 to 137 °C.

**Q.** With Cn1ccnc1Sc1ccc(Nc2c(C#N)cnc3cc(/C=C/CCN4CCCCC4)ccc23)cc1Cl as the molecule, how does the melting point read?
**A.** The melting point was 205 to 210 °C.

**Q.** For OC[C@H]1C[C@H]2CN(c3ncc(F)cn3)CCN2C1, which melting point is on record?
**A.** Its melting point is 123 to 124 °C.

**Q.** For Cc1cc(C)cc(C(Cl)=NNc2ccccc2)c1, which melting point is on record?
**A.** Its melting point is 47.5 to 48.5 °C.

**Q.** Which melting point does the source give for O=[N+]([O-])c1ccc(OCc2ccc(C(F)(F)F)cc2)cc1 here?
**A.** Its melting point is 80.5 to 81.5 °C.

**Q.** Which melting point does the source give for NS(=O)(=O)c1cc(Cl)c(Cl)c(Cl)c1 here?
**A.** Its melting point is 190 to 191 °C.

**Q.** Which melting point does the source give for CSCC(C)(C)N(C(=O)c1c(I)cccc1C(N)=O)c1ccc(Cn2nnn(-c3ccc(C(F)(F)F)cc3)c2=O)cc1C here?
**A.** Its melting point is 83 to 87 °C.

**Q.** Which melting point does the source give for CCCC(=CC(N)C(=O)O)CP(=O)(O)O (stereo not drawn) here?
**A.** Its melting point is 193 °C.

**Q.** With NC1=NS(=O)N=C1NCCSCc1ccc(CN2CCCCC2)o1 (stereo not drawn) as the molecule, how does the melting point read?
**A.** The melting point was 161 to 163 °C.

**Q.** With O=C1N(Cn2nc3ccccc3n2)c2ccccc2C12COc1cc3c(cc12)CCO3 (stereo not drawn) as the molecule, how does the melting point read?
**A.** The melting point was 102 to 105 °C.

**Q.** Which melting point does the source give for C=C1CCC2C3CC(=O)C4=CC(=O)CCC4(C)C3CCC12C (stereo not drawn) here?
**A.** Its melting point is 113 to 115 °C.

**Q.** For CCOC(=O)C(CCCCCc1ccc(Cl)cc1)NS(C)(=O)=O (stereo not drawn), which melting point is on record?
**A.** Its melting point is 60 to 62 °C.

**Q.** Which melting point does the source give for CC(C)c1cn(C(C)(C)C(=O)N(C)C)nc1-c1ccccc1Cl here?
**A.** Its melting point is 86 to 88 °C.

**Q.** For N#Cc1ncc(NCCO)nc1N1CCC(c2ccc(F)cc2)CC1, which melting point is on record?
**A.** The melting point was 155 to 158 °C.

**Q.** Which melting point does the source give for CCOC(=O)CC(=O)Cc1ccc(Br)cc1[N+](=O)[O-] here?
**A.** Its melting point is 78 to 80 °C.

**Q.** For CCCCOc1nc(N)c2[nH]c(=O)n(CCCCN(CCCN3CCCC3=O)Cc3cccc(CC(=O)OC)c3)c2n1, which melting point is on record?
**A.** The melting point was 115 to 116 °C.

**Q.** With CCOC(=O)C1=C(C)NC(C)=C(C(=O)OCC)C1c1ccccc1O as the molecule, how does the melting point read?
**A.** Its melting point is 159 to 161 °C.

**Q.** Which melting point does the source give for COc1ccc(C2CC(c3ccccc3)=NN2c2ccc(S(N)(=O)=O)cc2)cc1 (stereo not drawn) here?
**A.** The melting point was 111 °C.

**Q.** For COC(=O)c1cc(C)cc(OC)c1C1=C(OC)C(=O)c2c(OC(C)=O)cccc2C1=O, which melting point is on record?
**A.** The melting point was 127 to 128 °C.

**Q.** With CN1CC(=O)Nc2ccc(Br)cc2C1=O as the molecule, how does the melting point read?
**A.** Its melting point is 260 to 261 °C.

**Q.** For Cc1cccc(C)c1N(CCCC(=O)NCCCC(=O)O)C(=O)c1ccc(Cl)cc1, which melting point is on record?
**A.** The melting point was 141 to 142 °C.

**Q.** For CCc1c(C)nc2cccc(C)n2c1=O, which melting point is on record?
**A.** Its melting point is 127 to 128 °C.

**Q.** With CC(C)=NOCc1nc2c(N)nc3cccnc3c2n1CC(C)C as the molecule, how does the melting point read?
**A.** Its melting point is 173 to 175 °C.

**Q.** With Cc1nc(F)c(S(C)(=O)=O)c(F)n1 as the molecule, how does the melting point read?
**A.** Its melting point is 120 to 123 °C.

**Q.** Which melting point does the source give for CCC(O)c1cc(C(=O)c2ccccc2)no1 (stereo not drawn) here?
**A.** Its melting point is 70 to 71 °C.

**Q.** For O=C(c1ccccc1)c1cnn2c1NCCC2c1ccncc1 (stereo not drawn), which melting point is on record?
**A.** The melting point was 186 to 189 °C.

**Q.** With N#Cc1ccc2nc(C(=O)NCc3cccc(OCCSc4nc[nH]n4)c3)[nH]c(=O)c2c1 as the molecule, how does the melting point read?
**A.** Its melting point is 195 to 198 °C.

**Q.** Which melting point does the source give for COC(=O)c1c(O)cccc1OCCCCNC(=O)CCc1ccc(N2CC(=O)NS2(=O)=O)c(O)c1 here?
**A.** The melting point was 85 to 90 °C.

**Q.** For CCNC(=S)Nc1cc(Cl)ccc1C, which melting point is on record?
**A.** The melting point was 120 to 122 °C.

**Q.** Which melting point does the source give for CC(=O)NCc1ccc(CN2CCN(c3ccccc3)CC2)cc1N here?
**A.** The melting point was 148 to 149 °C.

**Q.** For COc1ccc(OC)c2c1CC(C(=O)O)CC2=O (stereo not drawn), which melting point is on record?
**A.** The melting point was 199 to 201 °C.

**Q.** With CNC(=O)C(N)Cc1ccc2ccccc2c1 (stereo not drawn) as the molecule, how does the melting point read?
**A.** Its melting point is 127 to 128 °C.

**Q.** With N#Cc1ccc(COc2ccc3ccccc3c2C=O)cc1 as the molecule, how does the melting point read?
**A.** Its melting point is 163 to 164 °C.

**Q.** Which melting point does the source give for CCOC(=O)c1cn(-c2ccc(F)cc2F)c2c(Cl)c(F)c(F)cc2c1=O here?
**A.** The melting point was 211 to 212 °C.

**Q.** With N#Cc1cc(-c2ccncc2)sc1-c1ccncc1 as the molecule, how does the melting point read?
**A.** The melting point was 205 to 207 °C.

**Q.** Which melting point does the source give for Cc1nc2ccc(CNS(=O)(=O)c3ccccc3)cc2n1Cc1ccccc1Cl here?
**A.** Its melting point is 164 to 167 °C.
